Measurements published in patent US20240115654A1, “INTRAVENOUS ADMINISTRATION OF ENGINEERED ANTIMICROBIAL AMPHIPHILIC PEPTIDES” (priority 2021, published 2024).
Where two headings read alike, the source gives them in different places. Peptide text beside a SMILES is read from it.

From the text: All subjects who met eligibility criteria were confined to the clinical research unit from […] through Day 3. At admission, physical examination, vital signs, 12 lead ECG and weight were obtained, medical and medication history were updated if necessary, safety blood tests (hematology and chemistry), urinalysis, urine drug screen and an alcohol breath test were repeated and a urine pregnancy test was done for women of childbearing potential.
At each dose level, there were 2 sentinel subjects, (1 active, 1 placebo), who were dosed at least 48 hours in advance of the other subjects in their respective group. Following review of safety data, including physical examination, vital signs, and review of adverse events from the first 2 subjects, enrolment in the cohort continued.
A 12-lead ECG was performed on Day 1, within 60 minutes of infusion start (in triplicate), mid-way through the infusion, at the completion of the infusion, 30 minutes after completion of the infusion and at various timepoints following the end of the infusion.
Vital signs were recorded within 60 minutes pre-dose, at the mid-point of the infusion and post dose vitals were assessed at completion of the infusion, 0.5, 1, 2, 3, 4, 6, 9, 12, 24 and 48 hours post dose, after at least 3 minutes of rest in supine position.
Subjects returned to the study center 7 days after dosing, for the termination visit. A full physical examination, vital signs and weight were obtained, concomitant medications were updated if necessary, safety blood specimens (haematology and chemistry, PT and aPTT) and urine were collected for urinalysis and urine drug screening. A serum pregnancy test was done for women of childbearing potential and a 12-lead ECG was performed.
In this study dose limiting toxicity (DLT) was defined as any drug related ≥Grade 3 AEs occurring despite optimal therapeutic interventions (which included but were not limited to allergic/hypersensitivity reactions, dermatological reactions/infusion site reactions, haematological toxicities such as neutropenia, thrombocytopenia and anaemia and clinical chemistry abnormalities) experienced up to Day 7 (Termination Visit).
(§1) All subjects who received any amount of study drug were included in the safety analysis (Safety population).
The study was a double blinded, randomized, placebo-controlled study. The placebo administered was 0.9% sodium chloride.
On Day 1 (day of dosing), subjects were randomly assigned either peptide IV or Placebo IV. At each dose level, there were 2 sentinel subjects, (1 active, 1 placebo), who were dosed at least 48 hours in advance of the other subjects in their respective group. Following review of safety data, including physical examination, vital signs, and review of adverse events from the first 2 subjects, enrolment in the cohort continued. All subjects who met eligibility criteria were confined to the clinical research unit from Day −2 through Day 3. At admission, physical examination, vital signs, 12 lead ECG and weight were obtained, medical and medication history were updated if necessary, safety blood tests (hematology and chemistry), urinalysis, urine drug screen and an alcohol breath test were repeated and a urine pregnancy test was done for women of childbearing potential.
as §1

[1] = 0.05 mg/kg IV 1 hr infusion (N = 6)
[2] = 0.5 mg/kg IV 2 hr infusion (N = 6)
[3] = Cohort 1: 0.05 mg/kg IV 1-hr infusion (N = 6)

Structure (SMILES): CC(C)[C@H](NC(=O)[C@H](Cc1c[nH]c2ccccc12)NC(=O)[C@H](CCCNC(=N)N)NC(=O)[C@H](CCCNC(=N)N)NC(=O)[C@@H](NC(=O)[C@@H](NC(=O)[C@H](CCCNC(=N)N)NC(=O)[C@@H](NC(=O)[C@@H](NC(=O)[C@H](CCCNC(=N)N)NC(=O)[C@H](CCCNC(=N)N)NC(=O)[C@H](Cc1c[nH]c2ccccc12)NC(=O)[C@@H](NC(=O)[C@H](CCCNC(=N)N)NC(=O)[C@H](CCCNC(=N)N)NC(=O)[C@@H](NC(=O)[C@H](CCCNC(=N)N)NC(=O)[C@H](CCCNC(=N)N)NC(=O)[C@@H](NC(=O)[C@H](Cc1c[nH]c2ccccc12)NC(=O)[C@H](CCCNC(=N)N)NC(=O)[C@@H](N)CCCNC(=N)N)C(C)C)C(C)C)C(C)C)C(C)C)C(C)C)C(C)C)C(C)C)C(=O)N[C@@H](CCCNC(=N)N)C(=O)N[C@@H](CCCNC(=N)N)C(N)=O [SEQ ID NO: 1] (H-RRWVRRVRRVWRRVVRVVRRWVRR-NH2)
- Related TEAE Abdominal [?], n participants [1]: 0
- Related TEAE Blood and lymphatic system disorders, n participants [1]: 0
- Related TEAE Co[?], n participants [1]: 0
- Related TEAE D[?] (r32, GI SOC), n participants [1]: 0
- Related TEAE F[?], n participants [1]: 0
- Related TEAE Gastrointestinal disorders, n participants [1]: 0
- Related TEAE In[?] related reaction, n participants [1]: 0
- Related TEAE Infusion [?] reaction, n participants [1]: 0
- Related TEAE Injury, poi[?] procedural complications, n participants [1]: 0
- Related TEAE M[?] and connective tissure disorders, n participants [1]: 0
- Related TEAE Myalgia, n participants [1]: 0
- Related TEAE Nervous system disorders, n participants [1]: 0
- Related TEAE O[?] (r25, vascular SOC), n participants [1]: 0
- Related TEAE O[?] (r38, respiratory SOC), n participants [1]: 0
- Related TEAE P[?] (r26, vascular SOC), n participants [1]: 0
- Related TEAE Pain in extremity, n participants [1]: 0
- Related TEAE Respiratory, thoracic and m[?] disorders, n participants [1]: 0
- Related TEAE T[?], n participants [1]: 0
- Related TEAE Vascular disorders, n participants [1]: 0
- Related TEAE Ve[?], n participants [1]: 0
- Related TEAE [?] headache, n participants [1]: 0
- TEAE A[?] (r19, skin SOC), n participants [1]: 0
- TEAE A[?] (r46, GI SOC), n participants [1]: 0
- TEAE Back pain, n participants [1]: 0
- TEAE Blood and lymphatic system disorders, n participants [1]: 0
- TEAE Constipation, n participants [1]: 0
- TEAE D[?] (r54), n participants [1]: 0
- TEAE D[?] contact, n participants [1]: 0
- TEAE Dia[?], n participants [1]: 0
- TEAE Headache, n participants [1]: 0
- TEAE In[?] (r53), n participants [1]: 0
- TEAE Injury, [?] and procedural complications, % participants [1]: 50.0%
- TEAE Injury, [?] and procedural complications, M occurrences [1]: 3
- TEAE Injury, [?] and procedural complications, n participants [1]: 3
- TEAE Mu[?], n participants [1]: 0
- TEAE Musculoskeletal and connective tissue disorders, n participants [1]: 0
- TEAE My[?], n participants [1]: 0
- TEAE O[?] (r37, vascular SOC), n participants [1]: 0
- TEAE O[?] pain, n participants [1]: 0
- TEAE Pain [?], n participants [1]: 0
- TEAE Participants with at least one [?], M occurrences [1]: 7
- TEAE Participants with at least one [?], n participants [1]: 5
- TEAE R[?] (r20, skin SOC), n participants [1]: 0
- TEAE Respiratory, thoracic and [?] disorders, n participants [1]: 0
- TEAE Severity Grade 1, occurrences (M) [1]: 7
- TEAE Severity Grade 1, participants % [1]: 83.3%
- TEAE Severity Grade 1, participants n [1]: 5
- TEAE Severity Grade 2, participants n [1]: 0
- TEAE Skin and [?] tissue [?], n participants [1]: 0
- TEAE Skin reaction, n participants [1]: 0
- TEAE Thermal [?], n participants [1]: 0
- TEAE V[?] (r24, general SOC), n participants [1]: 0
- TEAE V[?] access [?] (r10), % participants [1]: 50.0%
- TEAE V[?] access [?] (r10), M occurrences [1]: 3
- TEAE V[?] access [?] (r10), n participants [1]: 3
- TEAE V[?] puncture site [?] (r28), n participants [1]: 0
- TEAE Vascular access site [?] (r11), n participants [1]: 0
- TEAE Vascular access site [?] (r12), n participants [1]: 0
- TEAE Vascular access site [?] (r15), n participants [1]: 0
- TEAE Vascular disorders, n participants [1]: 0
- TEAE [?] (r13, under Injury SOC), n participants [1]: 0
- TEAE [?] (r25, general SOC), n participants [1]: 0
- TEAE [?] (r26, general SOC), n participants [1]: 0
- TEAE [?] (r38, vascular SOC), n participants [1]: 0
- TEAE [?] (r39, vascular SOC), n participants [1]: 0
- TEAE [?] (r44, nervous SOC), n participants [1]: 0
- TEAE [?] (r52, blood SOC), n participants [1]: 0
- TEAE, occurrences (M) [1]: 7
- Participants Reporting at least One TEAE, % [2]: 100%
- Related TEAE Blood and lymphatic system disorders, n participants [2]: 0
- Related TEAE Co[?], n participants [2]: 0
- Related TEAE F[?], n participants [2]: 0
- Related TEAE In[?] related reaction, n participants [2]: 0
- Related TEAE Injury, poi[?] procedural complications, n participants [2]: 0
- Related TEAE M[?] and connective tissure disorders, n participants [2]: 0
- Related TEAE Myalgia, n participants [2]: 0
- Related TEAE Nervous system disorders, n participants [2]: 0
- Related TEAE O[?] (r25, vascular SOC), n participants [2]: 0
- Related TEAE O[?] (r38, respiratory SOC), n participants [2]: 0
- Related TEAE P[?] (r26, vascular SOC), n participants [2]: 0
- Related TEAE Pain in extremity, n participants [2]: 0
- Related TEAE Respiratory, thoracic and m[?] disorders, n participants [2]: 0
- Related TEAE T[?], n participants [2]: 0
- Related TEAE V[?] (r18), n participants [2]: 0
- Related TEAE Vascular disorders, n participants [2]: 0
- Related TEAE [?] headache, n participants [2]: 0
- TEAE A[?] (r19, skin SOC), n participants [2]: 0
- TEAE Abdominal pain, n participants [2]: 0
- TEAE Blood and lymphatic system disorders, n participants [2]: 0
- TEAE Constipation, n participants [2]: 0
- TEAE D[?] contact, n participants [2]: 0
- TEAE Dizziness, n participants [2]: 0
- TEAE Gastrointestinal disorders, M occurrences [2]: 2
- TEAE Gastrointestinal disorders, n participants [2]: 1
- TEAE Injury, [?] and procedural complications, M occurrences [2]: 4
- TEAE Injury, [?] and procedural complications, n participants [2]: 3
- TEAE Mu[?], n participants [2]: 0
- TEAE My[?], n participants [2]: 0
- TEAE O[?] (r37, vascular SOC), n participants [2]: 0
- TEAE O[?] pain, n participants [2]: 0
- TEAE P[?] (r43, nervous SOC), n participants [2]: 0
- TEAE Respiratory, thoracic and [?] disorders, n participants [2]: 0
- TEAE Severity Grade 1, occurrences (M) [2]: 12
- TEAE Severity Grade 1, participants % [2]: 100%
- TEAE Severity Grade 1, participants n [2]: 6
- TEAE Severity Grade 2, occurrences (M) [2]: 3
- TEAE Severity Grade 2, participants n [2]: 2
- TEAE Skin and [?] tissue [?], M occurrences [2]: 3
- TEAE Skin and [?] tissue [?], n participants [2]: 2
- TEAE Skin reaction, M occurrences [2]: 2
- TEAE Skin reaction, n participants [2]: 1
- TEAE Thermal [?], n participants [2]: 0
- TEAE V[?] puncture site [?] (r27), n participants [2]: 0
- TEAE V[?] puncture site [?] (r28), n participants [2]: 0
- TEAE Vascular access site [?] (r15), n participants [2]: 0
- TEAE Vascular disorders, n participants [2]: 0
- TEAE [?] (r13, under Injury SOC), n participants [2]: 0
- TEAE [?] (r26, general SOC), n participants [2]: 0
- TEAE [?] (r38, vascular SOC), n participants [2]: 0
- TEAE [?] (r39, vascular SOC), n participants [2]: 0
- TEAE [?] (r44, nervous SOC), n participants [2]: 0
- TEAE [?] (r52, blood SOC), n participants [2]: 0
- TEAE, occurrences (M) [2]: 15
- overall safety and tolerability (0.05 to 0.5 mg/kg, drug concentration below […] and rate of infusion below 25 mg/hr): safe and well tolerated
- Number of Participants Reporting at least: Onc TEAE Leading to Study Withdrawal, n (%) [3]: 0
- Number of Participants Reporting at least: One Dose-Limiting Toxicity, n (%) [3]: 0
- Number of Participants Reporting at least: One Related TEAE, n (%) [3]: 1 (16.7%)
- Number of Participants Reporting at least: One Serious TEAE, n (%) [3]: 0
- Number of Participants Reporting at least: One TEAE Leading to Study Drug Discontinuation, n (%) [3]: 0
- Number of Participants Reporting at least: One TEAE with Common Terminology Criteria for Adverse Events (CTCAE) Toxicity ≥ Grade 3, n (%) [3]: 0
- Number of Participants Reporting at least: One TEAE, n (%) [3]: 5 (83.3%)
- One Related TEAE, m [3]: 1
- One TEAE, m [3]: 7
- Participants With At Least 1 TEAE, n (%) [3]: 5 (83.3%)
